US7875744B2, “4-((phenoxyalkyl)thio)-phenoxyacetic acids and analogs” (Janssen Pharmaceutica NV, priority 2004, dated 2011)

Key:
Format in all cases: cell-based
Details in all cases: HEK293 cells co-transfected with PPAR LBD-GAL4 and UAS-luciferase; 18-24 hrs treatment
[1] = biological target: T1, PPAR gamma (Homo sapiens, UniProt P37231); assay: Transfection assay for PPAR receptors (GAL4-LBD luciferase reporter in HEK293 cells), PPAR gamma
T1 construct: expressed in transfected cells; host or cells: HEK293
T1 sequence (P37231 238-503 limits assumed): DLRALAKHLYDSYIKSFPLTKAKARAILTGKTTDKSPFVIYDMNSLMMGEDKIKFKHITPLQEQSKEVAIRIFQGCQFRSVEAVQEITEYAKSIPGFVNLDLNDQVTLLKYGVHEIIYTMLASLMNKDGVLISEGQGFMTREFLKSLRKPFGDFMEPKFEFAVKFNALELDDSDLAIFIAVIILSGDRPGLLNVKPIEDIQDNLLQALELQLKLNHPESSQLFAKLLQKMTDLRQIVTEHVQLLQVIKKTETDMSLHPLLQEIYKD
Experimental: (§1) Transfection Assay Method for PPAR Receptors
(§2) HEK293 cells were grown in DMEM/F12 medium supplemented with 10% FBS and glutamine (Invitrogen) and incubated in a 5% CO2 incubator at 37° C. The cells were co-transfected using DMRIE-C reagent (Invitrogen) in serum free medium (Opti-MEM, Invitrogen) with two mammalian expression plasmids, one containing the DNA sequence coding for the ligand binding domains of either PPARα, γ or 6 fused to the yeast GAL4 DNA binding domain and the other containing the promoter sequence of the yeast GAL4 (UAS) fused to the firefly luciferase cDNA reporter. The next day, the medium was changed to DMEM/F12 medium supplemented with 5% charcoal treated serum (Hyclone) and glutamine. After 6 hrs the cells were trypsinized and seeded at a density of 50,000 cells/well into 96 well plates and incubated overnight as above. The cells were then treated with test compounds or vehicle and incubated for 18-24 hrs as above. Luciferase reporter activity was measured using the Steady-Glo Luciferase Assay Kit from Promega. DMRIE-C Reagent was purchased from GIBCO Cat. No. 10459-014. OPTI-MEM I Reduced Serum Medium was purchased from GIBCO (Cat. No. 31985). Steady-Glo Luciferase Assay Kit was purchased from Promega (Part# E254B).
(§3) A variety of example compounds have been made and tested, with a range of in vitro results. […]

[2] = biological target: T2, PPAR delta (Homo sapiens, UniProt Q03181); assay: Transfection assay for PPAR receptors (GAL4-LBD luciferase reporter in HEK293 cells), PPAR delta
T2 construct: expressed in transfected cells; host or cells: HEK293
T2 sequence (Q03181 211-439 limits assumed): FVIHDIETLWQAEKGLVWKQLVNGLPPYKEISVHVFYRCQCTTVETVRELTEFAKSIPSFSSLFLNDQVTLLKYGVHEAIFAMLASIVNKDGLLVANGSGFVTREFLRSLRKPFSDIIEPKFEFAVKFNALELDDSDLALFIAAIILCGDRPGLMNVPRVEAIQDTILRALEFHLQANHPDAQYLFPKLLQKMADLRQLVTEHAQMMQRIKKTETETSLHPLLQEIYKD
Experimental: as §1, §2, §3

[3] = biological target: T3, PPAR alpha (Homo sapiens, UniProt Q07869); assay: Transfection assay for PPAR receptors (GAL4-LBD luciferase reporter in HEK293 cells), PPAR alpha
T3 construct: expressed in transfected cells; host or cells: HEK293
T3 sequence (Q07869 239-466 limits assumed): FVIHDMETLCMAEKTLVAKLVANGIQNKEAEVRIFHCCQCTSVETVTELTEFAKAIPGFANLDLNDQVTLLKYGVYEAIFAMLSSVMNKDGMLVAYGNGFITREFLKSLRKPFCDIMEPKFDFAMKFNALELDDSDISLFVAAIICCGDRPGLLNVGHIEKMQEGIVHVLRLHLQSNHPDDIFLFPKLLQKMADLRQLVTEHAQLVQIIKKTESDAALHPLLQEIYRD
Experimental: as §1, §2, §3

EC50 [1]: 899 nM
EC50 [2]: 41.5 nM
EC50 [3]: 900 nM
Compound: C=C(COc1ccc(OC(F)(F)F)cc1)CSc1ccc(OC(C)(C)C(=O)O)c(C)c1 [Compound 2]
